{"source": "paper PMC10046961", "about": "“High-Throughput Screening Assay for Detecting Drug-Induced Changes in Synchronized Neuronal Oscillations and Potential Seizure Risk Based on Ca^2+ Fluorescence Measurements in Human Induced Pluripotent Stem Cell (hiPSC)-Derived Neuronal 2D and 3D Cultures” (Cells, 2023)", "key": {"[1]": {"system": "hiPSC-derived neurons co-cultured with human primary astrocytes in 2D", "test": "Ca2+ transient oscillation assay (FDSS), 2D co-culture", "format": "cell-based", "settings": "for activation at 0.11 µM / activation at 0.33 µM / activation at 1 µM / activation at 3 µM / activation at 0.37 µM / activation at 1.11 µM / activation at 3.33 µM / activation at 10 µM: Homo sapiens, 1 h, 60 min", "outline": "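hiPSC-derived excitatory neurons (CW50065, Quick-Neuron EX-SeV) co-cultured with human primary astrocytes at 4:1 (10,000:2500 cells per well). Cal-520-loaded cells in HBSS with 2 mM CaCl2 and 10 mM HEPES were pretreated with 0.04% DMSO.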"}, "[2]": {"settings": "ref PharmaPendium, cited from earlier work"}, "[3]": {"system": "hiPSC-derived neurons co-cultured with human primary astrocytes in 3D", "test": "Ca2+ transient oscillation assay (FDSS), 3D spheroids", "format": "cell-based", "settings": "60 min", "outline": "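Fura-2 fluorescence was read twice for 20 min each: a baseline 10 min after 0.04% DMSO, and again 60 min after compound addition at nominal final concentration. The 3D co-cultures (1:1 hiPSC neurons from a donor and human astrocytes, 8000 each) matured 5 weeks in BrainPhys medium after a 1-week differentiation.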"}, "[4]": {"settings": "read-out: Area under the curve - 2D Mean"}, "[5]": {"settings": "read-out: Peak amplitude - 2D Mean"}, "[6]": {"settings": "read-out: Peak-to-peak interval - 2D Mean"}, "[7]": {"settings": "Table 1, peak plasma concentration in men, free therapeutic Cmax"}}, "note": "Like-named read-outs stand apart in the source and are kept apart here."}
{"smiles": "NCCCC(=O)O", "note": "[GABA, gamma-aminobutyric acid]", "values": [{"measurement": "effect on peak number / Ca2+ neuronal oscillations, in words", "setting": "[1]; 2D format", "result": "significantly reduced peak number"}, {"measurement": "activation at 0.11 µM", "setting": "[1]; [4]", "result": 23.1, "unit": "%"}, {"measurement": "activation at 0.11 µM", "setting": "[1]; read-out: Peak Number—2D Mean", "result": -1.6, "unit": "%"}, {"measurement": "activation at 0.11 µM", "setting": "[1]; [5]", "result": 9.1, "unit": "%"}, {"measurement": "activation at 0.11 µM", "setting": "[1]; read-out: Peak width - 2D Mean", "result": 13.2, "unit": "%"}, {"measurement": "activation at 0.11 µM", "setting": "[1]; [6]", "result": -12.3, "unit": "%"}, {"measurement": "activation at 0.33 µM", "setting": "[1]; [4]", "result": 21.1, "unit": "%"}, {"measurement": "activation at 0.33 µM", "setting": "[1]; read-out: Peak Number—2D Mean", "result": -4.4, "unit": "%"}, {"measurement": "activation at 0.33 µM", "setting": "[1]; [5]", "result": 5.7, "unit": "%"}, {"measurement": "activation at 0.33 µM", "setting": "[1]; read-out: Peak width - 2D Mean", "result": 15.4, "unit": "%"}, {"measurement": "activation at 0.33 µM", "setting": "[1]; [6]", "result": 29.1, "unit": "%"}, {"measurement": "activation at 1 µM", "setting": "[1]; [4]", "result": 16.4, "unit": "%"}, {"measurement": "activation at 1 µM", "setting": "[1]; read-out: Peak Number—2D Mean", "result": -12.4, "unit": "%"}, {"measurement": "activation at 1 µM", "setting": "[1]; [5]", "result": -1.4, "unit": "%"}, {"measurement": "activation at 1 µM", "setting": "[1]; read-out: Peak width - 2D Mean", "result": 11.7, "unit": "%"}, {"measurement": "activation at 1 µM", "setting": "[1]; [6]", "result": 32, "unit": "%"}, {"measurement": "activation at 3 µM", "setting": "[1]; [4]", "result": 14.9, "unit": "%"}, {"measurement": "activation at 3 µM", "setting": "[1]; read-out: Peak Number—2D Mean", "result": -36.5, "unit": "%"}, {"measurement": "activation at 3 µM", "setting": "[1]; [5]", "result": -2.7, "unit": "%"}, {"measurement": "activation at 3 µM", "setting": "[1]; read-out: Peak width - 2D Mean", "result": 8.5, "unit": "%"}, {"measurement": "activation at 3 µM", "setting": "[1]; [6]", "result": -26.3, "unit": "%"}, {"measurement": "Free Cmax", "setting": "[2]; [7]", "result": "~1000", "unit": "nM"}, {"measurement": "Free Cmax", "setting": "[2]; Table 2, highest plasma concentration in humans after the therapeutic dose", "result": "~1000", "unit": "nM"}, {"measurement": "Area under the curve - 3D Mean", "setting": "[3]; 0.11 µM", "result": 111.5, "unit": "% change from baseline"}, {"measurement": "Peak Number—3D Mean", "setting": "[3]; 0.11 µM", "result": 5.0, "unit": "% change from baseline"}, {"measurement": "Peak amplitude - 3D Mean", "setting": "[3]; 0.11 µM", "result": 87.8, "unit": "% change from baseline"}, {"measurement": "Peak width - 3D Mean", "setting": "[3]; 0.11 µM", "result": 7.6, "unit": "% change from baseline"}, {"measurement": "Peak-to-peak interval - 3D Mean", "setting": "[3]; 0.11 µM", "result": 0.2, "unit": "% change from baseline"}, {"measurement": "Area under the curve - 3D Mean", "setting": "[3]; 0.33 µM", "result": 116.2, "unit": "% change from baseline"}, {"measurement": "Peak Number—3D Mean", "setting": "[3]; 0.33 µM", "result": "−1.8", "unit": "% change from baseline"}, {"measurement": "Peak amplitude - 3D Mean", "setting": "[3]; 0.33 µM", "result": 112.0, "unit": "% change from baseline"}, {"measurement": "Peak width - 3D Mean", "setting": "[3]; 0.33 µM", "result": 0.5, "unit": "% change from baseline"}, {"measurement": "Peak-to-peak interval - 3D Mean", "setting": "[3]; 0.33 µM", "result": "−2.1", "unit": "% change from baseline"}, {"measurement": "Area under the curve - 3D Mean", "setting": "[3]; 1 µM", "result": 97.0, "unit": "% change from baseline"}, {"measurement": "Peak Number—3D Mean", "setting": "[3]; 1 µM", "result": "−0.6", "unit": "% change from baseline"}, {"measurement": "Peak amplitude - 3D Mean", "setting": "[3]; 1 µM", "result": 90.5, "unit": "% change from baseline"}, {"measurement": "Peak width - 3D Mean", "setting": "[3]; 1 µM", "result": "−2.7", "unit": "% change from baseline"}, {"measurement": "Peak-to-peak interval - 3D Mean", "setting": "[3]; 1 µM", "result": 8.3, "unit": "% change from baseline"}, {"measurement": "Area under the curve - 3D Mean", "setting": "[3]; 3 µM", "result": 118.7, "unit": "% change from baseline"}, {"measurement": "Peak Number—3D Mean", "setting": "[3]; 3 µM", "result": 2.2, "unit": "% change from baseline"}, {"measurement": "Peak amplitude - 3D Mean", "setting": "[3]; 3 µM", "result": 110.9, "unit": "% change from baseline"}, {"measurement": "Peak width - 3D Mean", "setting": "[3]; 3 µM", "result": 0.7, "unit": "% change from baseline"}, {"measurement": "Peak-to-peak interval - 3D Mean", "setting": "[3]; 3 µM", "result": "−2.5", "unit": "% change from baseline"}]}
{"smiles": "CCn1cc(C(=O)O)c(=O)c2cc(F)c(N3CCNCC3)nc21", "note": "[Enoxacin]", "values": [{"measurement": "activation at 0.37 µM", "setting": "[1]; [4]", "result": 25.5, "unit": "%"}, {"measurement": "activation at 0.37 µM", "setting": "[1]; read-out: Peak Number—2D Mean", "result": 1.3, "unit": "%"}, {"measurement": "activation at 0.37 µM", "setting": "[1]; [5]", "result": 7.8, "unit": "%"}, {"measurement": "activation at 0.37 µM", "setting": "[1]; read-out: Peak width - 2D Mean", "result": 18.3, "unit": "%"}, {"measurement": "activation at 0.37 µM", "setting": "[1]; [6]", "result": 18, "unit": "%"}, {"measurement": "activation at 1.11 µM", "setting": "[1]; [4]", "result": 41, "unit": "%"}, {"measurement": "activation at 1.11 µM", "setting": "[1]; read-out: Peak Number—2D Mean", "result": 2.3, "unit": "%"}, {"measurement": "activation at 1.11 µM", "setting": "[1]; [5]", "result": 5.3, "unit": "%"}, {"measurement": "activation at 1.11 µM", "setting": "[1]; read-out: Peak width - 2D Mean", "result": 45.8, "unit": "%"}, {"measurement": "activation at 1.11 µM", "setting": "[1]; [6]", "result": 1.3, "unit": "%"}, {"measurement": "activation at 3.33 µM", "setting": "[1]; [4]", "result": 47.3, "unit": "%"}, {"measurement": "activation at 3.33 µM", "setting": "[1]; read-out: Peak Number—2D Mean", "result": 5.5, "unit": "%"}, {"measurement": "activation at 3.33 µM", "setting": "[1]; [5]", "result": 13.5, "unit": "%"}, {"measurement": "activation at 3.33 µM", "setting": "[1]; read-out: Peak width - 2D Mean", "result": 39, "unit": "%"}, {"measurement": "activation at 3.33 µM", "setting": "[1]; [6]", "result": 12.7, "unit": "%"}, {"measurement": "activation at 10 µM", "setting": "[1]; [4]", "result": 49.3, "unit": "%"}, {"measurement": "activation at 10 µM", "setting": "[1]; read-out: Peak Number—2D Mean", "result": 2, "unit": "%"}, {"measurement": "activation at 10 µM", "setting": "[1]; [5]", "result": 11.3, "unit": "%"}, {"measurement": "activation at 10 µM", "setting": "[1]; read-out: Peak width - 2D Mean", "result": 49, "unit": "%"}, {"measurement": "activation at 10 µM", "setting": "[1]; [6]", "result": -3, "unit": "%"}, {"measurement": "Free Cmax", "setting": "[2]; [7]", "result": "1000 to 4000", "unit": "nM"}, {"measurement": "Area under the curve - 3D Mean", "setting": "[3]; 0.37 µM", "result": 115.6, "unit": "% change from baseline"}, {"measurement": "Peak Number—3D Mean", "setting": "[3]; 0.37 µM", "result": "−16.9", "unit": "% change from baseline"}, {"measurement": "Peak amplitude - 3D Mean", "setting": "[3]; 0.37 µM", "result": 106.8, "unit": "% change from baseline"}, {"measurement": "Peak width - 3D Mean", "setting": "[3]; 0.37 µM", "result": 3.2, "unit": "% change from baseline"}, {"measurement": "Peak-to-peak interval - 3D Mean", "setting": "[3]; 0.37 µM", "result": 30.9, "unit": "% change from baseline"}, {"measurement": "Area under the curve - 3D Mean", "setting": "[3]; 1.11 µM", "result": 124.6, "unit": "% change from baseline"}, {"measurement": "Peak Number—3D Mean", "setting": "[3]; 1.11 µM", "result": 5.5, "unit": "% change from baseline"}, {"measurement": "Peak amplitude - 3D Mean", "setting": "[3]; 1.11 µM", "result": 123.3, "unit": "% change from baseline"}, {"measurement": "Peak width - 3D Mean", "setting": "[3]; 1.11 µM", "result": "−2.2", "unit": "% change from baseline"}, {"measurement": "Peak-to-peak interval - 3D Mean", "setting": "[3]; 1.11 µM", "result": "−0.7", "unit": "% change from baseline"}, {"measurement": "Area under the curve - 3D Mean", "setting": "[3]; 3.33 µM", "result": 139.4, "unit": "% change from baseline"}, {"measurement": "Peak Number—3D Mean", "setting": "[3]; 3.33 µM", "result": 13.2, "unit": "% change from baseline"}, {"measurement": "Peak amplitude - 3D Mean", "setting": "[3]; 3.33 µM", "result": 129.6, "unit": "% change from baseline"}, {"measurement": "Peak width - 3D Mean", "setting": "[3]; 3.33 µM", "result": 3.0, "unit": "% change from baseline"}, {"measurement": "Peak-to-peak interval - 3D Mean", "setting": "[3]; 3.33 µM", "result": "−1.3", "unit": "% change from baseline"}, {"measurement": "Area under the curve - 3D Mean", "setting": "[3]; 10 µM", "result": 114.6, "unit": "% change from baseline"}, {"measurement": "Peak Number—3D Mean", "setting": "[3]; 10 µM", "result": 2.2, "unit": "% change from baseline"}, {"measurement": "Peak amplitude - 3D Mean", "setting": "[3]; 10 µM", "result": 116.3, "unit": "% change from baseline"}, {"measurement": "Peak width - 3D Mean", "setting": "[3]; 10 µM", "result": "−1.1", "unit": "% change from baseline"}, {"measurement": "Peak-to-peak interval - 3D Mean", "setting": "[3]; 10 µM", "result": "−1.1", "unit": "% change from baseline"}]}
